Data published in article PMC12024457 (Antioxidants, 2025).

Experiments:
[1] = system: human triple-negative MDA-MB-231 breast cancer cells; assay: MTT cell viability, MDA-MB-231; format: cell-based; settings: MDA-MB-231, 48 h, up to 30 µM
Procedure: (§1) MDA-MB-231 and LX2 cells were seeded in triplicate in 96-well plates at a density of 20,000 cells per well in 100 μL of medium and allowed to attach for 24 h at 37 °C and 5% CO2. Compounds were added at a final DMSO concentration of 0.5%, and cells were incubated for an additional 48 h. The pan-kinase inhibitor staurosporine (1 µM, Merck) was used as a reference compound, and the concentration was selected to efficiently induce cell death (≥90%). […]. The concentrations of Q-VD-OPh and ferrostatin-1 were chosen based on commonly applied ranges reported in the literature and were further optimized in preliminary experiments using the apoptosis inducers etoposide and staurosporine, as well as the ferroptosis inducer RSL3, to ensure suppression of apoptosis and ferroptosis, respectively. […] For the MTT assay, 20 µL of 3-(4,5-dimethylthiazol-2-yl)-2,5-diphenyltetrazolium bromide (MTT, 5 mg/mL in PBS pH = 7.4, sterile-filtered, Merck) solution was added to each well, and the cells were incubated for 1.5 h. […] Absorbance was measured at 570 nm using a SpectraMax iD3 plate reader (Molecular Devices). Absorbance values from ethanol-treated cells were used for background subtraction, and cell viability was expressed as percentage relative to the vehicle control (DMSO). […]

[2] = system: Human MDA-MB-231 breast cancer cells; format: cell-based
Procedure: MDA-MB-231 and LX2 cells were seeded in triplicate in 96-well plates at a density of 20,000 cells per well in 100 μL of medium and allowed to attach for 24 h at 37 °C and 5% CO2. Compounds were added at a final DMSO concentration of 0.5%, and cells were incubated for an additional 48 h. The pan-kinase inhibitor staurosporine (1 µM, Merck) was used as a reference compound, and the concentration was selected to efficiently induce cell death (≥90%). […]. The concentrations of Q-VD-OPh and ferrostatin-1 were chosen based on commonly applied ranges reported in the literature and were further optimized in preliminary experiments using the apoptosis inducers etoposide and staurosporine, as well as the ferroptosis inducer RSL3, to ensure suppression of apoptosis and ferroptosis, respectively. […] Absorbance was measured at 570 nm using a SpectraMax iD3 plate reader (Molecular Devices). Absorbance values from ethanol-treated cells were used for background subtraction, and cell viability was expressed as percentage relative to the vehicle control (DMSO). […]
Cells were treated with vehicle (0.5% DMSO) or compounds at different concentrations (0.3, 1, 3, 10, and 30 μM) for 48 h. Cell viability measured by MTT assay. […]

MDA-MB-231 cells = assay: Inhibition of RSL3-induced ferroptotic cell death (MTT); format: cell-based, human; settings: at either 3 or 30 μM, RSL3 0.3 µM
Procedure: The anti-ferroptotic properties of the compounds were evaluated in MDA-MB-231 cells. Cells were seeded in 96-well plates at a density of 20,000 cells per well in 100 μL of medium. After 24 h at 37 °C and 5% CO2, cells were treated with the vehicle (0.5% DMSO) or the compounds at 3 µM and 30 µM alone or in combination with RSL3 (0.3 μM, Cayman Chemicals) for an additional 48 h. The cellular dehydrogenase activity was assessed by the reduction of MTT, as described in Section 2.4.
Radar plot illustrating cell viability measured by MTT assay. […] Data are presented as the mean of n = 3 independent experiments. * p < 0.05, ** p < 0.01; paired Student’s t-test.

human LX2 stellate cells = assay: MTT cell viability, LX2; format: cell-based; settings: LX2, 48 h, up to 30 µM
Procedure: as §1

[3] = TE: Trolox equivalent
[4] = DPPH radical scavenging assay; settings: read-out: DPPH (EC50)

| Compound | EC50 [1] | effect of ferroptosis inhibitor Fer-1 on compound-induced cell death ([2]; Fer-1 10 μM, 48 h) | effect of apoptosis inhibitor Q-VD on compound-induced cell death ([2]; human) | cytoprotective effects against RSL3-induced ferroptosis (MDA-MB-231 cells) | EC50 (human LX2 stellate cells) | ORAC (TE) [3] | EC50 [4] |
| --- | --- | --- | --- | --- | --- | --- | --- |
| COc1cc(/C=C/C(=O)CC(=O)/C=C/c2ccc(O)c(OC)c2)ccc1O [Curcumin] | 20 µM | partially attenuated by Fer-1 | tendentially by Q-VD | did not exhibit cytoprotective effects | 23 µM | – | – |
| OCCc1ccc(O)c(O)c1 [HTYR, 3-hydroxy-tyrosol] | – | – | – | – | – | 7.40 ± 0.17 TE | 12.3 ± 1 µM |
| COc1ccc2[nH]cc(CCO)c2c1 [MEL, 5-methoxytryptophol] | – | – | – | – | – | 2.23 ± 0.12 TE | > 1000 µM |
| COc1cc(CCO)ccc1O [MTYR, 3-methoxy-tyrosol] | – | – | – | – | – | 2.90 ± 0.21 TE | 31 ± 2.6 µM |
| OCCc1ccc(O)cc1 [TYR, tyrosol] | – | – | – | – | – | 2.18 ± 0.12 TE | > 1000 µM |
